Data as given in patent US20250368627A1, “PYRAZOLESULFONAMIDES AS ANTITUMOR AGENTS” (Peloton Therapeutics, Inc., a fully owned subsidiary of …, priority 2019, published 2025).

Legend:
[1] = system: HCT116 human colorectal carcinoma cells; assay: CellTiter-Glo Luminescent Cell Viability Assay; format: cell-based; details: HCT-116, 72 h, 3 days
Procedure, shortened: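 HCT116 cells were exposed for 3 days to compound in triplicate at final concentrations of 5 to 0.0002 […] (1:3 dilutions). Viability was read by CellTiter-Glo luminescence, and IC50 values were calculated.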

[2] = target: T1, DDB1DB/DCAF15 and RBM39 R1R2 complex (Homo sapiens, UniProt Q14498+Q66K64); assay: DCAF15 RBM39 Complex Formation Assay (FRET); format: binding; details: FRET ratio Em 665/Em 615, incubated overnight at 4° C.
T1 construct: Amino acids 150 to 331 of RBM39 were cloned into pGEX4T3; GST (from vector pGEX4T3); TEV cleavage site (N); made in house; host or cells: DDB1DB/His-DCAF15: baculovirus/Sf9 co-expression; RBM39 R1R2: E. coli (pGEX4T3)
T1 sequence (Q66K64 whole entry, the tested form may be a part): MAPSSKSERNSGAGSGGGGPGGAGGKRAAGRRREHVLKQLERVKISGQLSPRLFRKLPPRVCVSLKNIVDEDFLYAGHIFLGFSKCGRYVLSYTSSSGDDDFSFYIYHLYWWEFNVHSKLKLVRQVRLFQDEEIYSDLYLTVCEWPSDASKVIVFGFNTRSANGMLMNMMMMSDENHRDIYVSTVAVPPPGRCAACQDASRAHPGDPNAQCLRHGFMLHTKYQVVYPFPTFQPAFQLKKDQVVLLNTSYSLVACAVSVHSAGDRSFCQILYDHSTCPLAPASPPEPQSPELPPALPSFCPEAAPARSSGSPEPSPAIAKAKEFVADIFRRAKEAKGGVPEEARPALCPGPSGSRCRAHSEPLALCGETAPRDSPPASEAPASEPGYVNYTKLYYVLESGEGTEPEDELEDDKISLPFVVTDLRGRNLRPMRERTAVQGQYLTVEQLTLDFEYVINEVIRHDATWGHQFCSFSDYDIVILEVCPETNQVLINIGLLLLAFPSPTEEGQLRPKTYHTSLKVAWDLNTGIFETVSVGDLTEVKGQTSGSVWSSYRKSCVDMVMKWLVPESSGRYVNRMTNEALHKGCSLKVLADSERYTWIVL
T1 sequence (Q14498 150-331): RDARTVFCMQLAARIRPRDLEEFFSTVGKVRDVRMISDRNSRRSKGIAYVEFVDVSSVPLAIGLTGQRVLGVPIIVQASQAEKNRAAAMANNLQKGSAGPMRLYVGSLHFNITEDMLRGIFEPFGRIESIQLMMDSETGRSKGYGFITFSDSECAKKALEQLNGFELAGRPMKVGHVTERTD
T1 sequence (Q16531 with tags, fused parts or gaps DEL396-708 partner): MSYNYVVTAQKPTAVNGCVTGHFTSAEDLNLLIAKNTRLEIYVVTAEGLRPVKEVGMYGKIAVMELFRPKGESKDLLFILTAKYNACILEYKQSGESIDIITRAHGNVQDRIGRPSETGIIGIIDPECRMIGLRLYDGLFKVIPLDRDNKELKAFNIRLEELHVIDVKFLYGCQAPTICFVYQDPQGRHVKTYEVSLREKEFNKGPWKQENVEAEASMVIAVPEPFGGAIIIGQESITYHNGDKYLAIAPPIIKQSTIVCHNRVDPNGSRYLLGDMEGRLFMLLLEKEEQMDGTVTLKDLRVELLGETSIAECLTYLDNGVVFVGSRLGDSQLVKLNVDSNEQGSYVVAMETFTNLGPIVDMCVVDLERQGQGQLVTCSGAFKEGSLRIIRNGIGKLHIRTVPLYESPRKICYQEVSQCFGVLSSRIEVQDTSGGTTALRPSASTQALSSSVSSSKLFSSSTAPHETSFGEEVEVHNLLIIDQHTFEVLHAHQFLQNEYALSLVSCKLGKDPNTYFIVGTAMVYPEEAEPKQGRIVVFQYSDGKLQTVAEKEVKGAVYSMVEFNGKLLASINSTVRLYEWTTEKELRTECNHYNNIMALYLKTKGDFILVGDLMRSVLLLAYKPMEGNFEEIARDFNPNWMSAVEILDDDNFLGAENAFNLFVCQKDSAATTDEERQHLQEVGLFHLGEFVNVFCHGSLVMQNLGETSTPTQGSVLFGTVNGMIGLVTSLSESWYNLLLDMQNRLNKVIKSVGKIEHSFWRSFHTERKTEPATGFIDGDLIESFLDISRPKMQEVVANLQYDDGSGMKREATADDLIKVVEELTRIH
Procedure, shortened: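 Ternary complex formation read by TR-FRET (Em 665/615, excitation 340 nm) after overnight incubation at 4° C of 20 nM baculovirus DDB1DB/His-DCAF15 and 50 nM E. coli RBM39 RRM1-RRM2 FLAG fragment with 14-point, 3-fold compound dilutions from 1 μM; EC50 from 4-parameter fit.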

| Compound | EC50 [1] [µM] | IC50 [2] [µM] |
| --- | --- | --- |
| COC(=O)C(C)(C)n1cc(S(=O)(=O)Nc2ccc(Cl)c3c(C#N)c[nH]c23)cn1 [Compound 169, methyl 2-[4-[(4-chloro-3-cyano-1H-indol-7-yl)sulfamoyl]pyrazol-1-yl]-2-methyl-propanoate] | 0.25 to 1 | < 0.25 |
| O=S(=O)(Nc1cccc2c(Cl)c[nH]c12)c1cnn(S(=O)(=O)c2cn[nH]c2)c1 [Compound 19, N-(3-chloro-1H-indol-7-yl)-1-(1H-pyrazol-4-ylsulfonyl)pyrazole-4-sulfonamide] | 0.25 to 1 | < 0.25 |
| Cc1ccc(NS(=O)(=O)c2cnn(-c3ccc(C(F)(F)F)cn3)c2)c2[nH]cc(C#N)c12 [Compound 31, N-(3-cyano-4-methyl-1H-indol-7-yl)-1-[5-(trifluoromethyl)-2-pyridyl]pyrazole-4-sulfonamide] | > 1 | < 0.25 |
| Cc1ccc(NS(=O)(=O)c2cnn(CC(F)F)c2N)c2[nH]cc(C#N)c12 [Compound 277, 5-amino-N-(3-cyano-4-methyl-1H-indol-7-yl)-1-(2,2-difluoroethyl)pyrazole-4-sulfonamide] | < 0.25 | < 0.25 |
| Cc1ccc(NS(=O)(=O)c2cnn([C@@H](CO)C(F)F)c2)c2[nH]cc(C#N)c12 [Compound 227, N-(3-cyano-4-methyl-1H-indol-7-yl)-1-[(1S)-2,2-difluoro-1-(hydroxymethyl)ethyl]pyrazole-4-sulfonamide] | 0.25 to 1 | < 0.25 |
| N#Cc1c[nH]c2c(NS(=O)(=O)c3cnn(C(F)F)c3N)ccc(F)c12 [Compound 285, 5-amino-N-(3-cyano-4-fluoro-1H-indol-7-yl)-1-(difluoromethyl)pyrazole-4-sulfonamide] | 0.25 to 1 | < 0.25 |
| Cc1ccc(NS(=O)(=O)c2cnn(CC3(C#N)CC3)c2)c2[nH]cc(C#N)c12 [Compound 145, N-(3-cyano-4-methyl-1H-indol-7-yl)-1-((1-cyanocyclopropyl)methyl)-1H-pyrazole-4-sulfonamide] | 0.25 to 1 | < 0.25 |
| N#Cc1c[nH]c2c(NS(=O)(=O)c3cnn(CC(F)F)c3N)ccc(Cl)c12 [Compound 278, 5-amino-N-(4-chloro-3-cyano-1H-indol-7-yl)-1-(2,2-difluoroethyl)pyrazole-4-sulfonamide] | < 0.25 | < 0.25 |
| O=S(=O)(Nc1cccc2c(Cl)c[nH]c12)c1cnn(-c2ccc(C(F)(F)F)cn2)c1 [Compound 30, N-(3-chloro-1H-indol-7-yl)-1-[5-(trifluoromethyl)-2-pyridyl]pyrazole-4-sulfonamide] | > 1 | > 1 |
| CCn1ncc(S(=O)(=O)Nc2ccc(Cl)c3c(C#N)c[nH]c23)c1N [Compound 273, 5-amino-N-(4-chloro-3-cyano-1H-indol-7-yl)-1-ethyl-pyrazole-4-sulfonamide] | < 0.25 | < 0.25 |
| Cc1ccc(NS(=O)(=O)c2cnn(C3CC(F)(F)C3)c2)c2[nH]cc(C#N)c12 [Compound 109, N-(3-cyano-4-methyl-1H-indol-7-yl)-1-(3,3-difluorocyclobutyl)pyrazole-4-sulfonamide] | 0.25 to 1 | < 0.25 |
| Cc1ccc(NS(=O)(=O)c2cnn(S(=O)(=O)c3ccccc3)c2)c2[nH]cc(C#N)c12 [Compound 101, 1-(benzenesulfonyl)-N-(3-cyano-4-methyl-1H-indol-7-yl)pyrazole-4-sulfonamide] | 0.25 to 1 | < 0.25 |
| N#Cc1c[nH]c2c(NS(=O)(=O)c3c[nH]nc3N)ccc(F)c12 [Compound 300, 3-amino-N-(3-cyano-4-fluoro-1H-indol-7-yl)-1H-pyrazole-4-sulfonamide] | > 1 | < 0.25 |
| [2H]C([2H])([2H])n1cc(S(=O)(=O)Nc2ccc(Cl)c3c(C#N)c[nH]c23)cn1 [Compound 135, N-(4-chloro-3-cyano-1H-indol-7-yl)-1-(trideuteriomethyl)pyrazole-4-sulfonamide] | < 0.25 | < 0.25 |
| Cc1ccc(NS(=O)(=O)c2cnn(C3CCNC3=O)c2)c2[nH]cc(C#N)c12 (centres unmarked) [Compound 146, N-(3-cyano-4-methyl-1H-indol-7-yl)-1-(2-oxopyrrolidin-3-yl)pyrazole-4-sulfonamide] | > 1 | < 0.25 |
| Cc1ccc(NS(=O)(=O)c2cnn([C@@H](CO)CF)c2)c2[nH]cc(C#N)c12 [Compound 246, N-(3-cyano-4-methyl-1H-indol-7-yl)-1-[(1S)-1-(fluoromethyl)-2-hydroxy-ethyl]pyrazole-4-sulfonamide] | 0.25 to 1 | < 0.25 |
| CC(F)(CO)n1cc(S(=O)(=O)Nc2ccc(F)c3c(C#N)c[nH]c23)cn1 (centres unmarked) [Compound 294, N-(3-cyano-4-fluoro-1H-indol-7-yl)-1-(1-fluoro-2-hydroxy-1-methyl-ethyl)pyrazole-4-sulfonamide] | > 1 | < 0.25 |

| Compound | EC50 [1] [µM] | IC50 [2] [µM] |
| --- | --- | --- |
| Cc1ccc(NS(=O)(=O)c2cnn(CF)c2)c2[nH]nc(C#N)c12 [Compound 305, N-(3-cyano-4-methyl-1H-indazol-7-yl)-1-(fluoromethyl)pyrazole-4-sulfonamide] | 0.25 to 1 | < 0.25 |
| Cc1ccc(NS(=O)(=O)c2cnn(C)c2CCO)c2[nH]cc(C#N)c12 [Compound 239, N-(3-cyano-4-methyl-1H-indol-7-yl)-5-(2-hydroxyethyl)-1-methyl-pyrazole-4-sulfonamide] | > 1 | < 0.25 |
| CC(C)(C)OC(=O)N1CC(n2cc(S(=O)(=O)Nc3cccc4c(Cl)c[nH]c34)cn2)C1 [Compound 12, tert-butyl 3-[4-[(3-chloro-1H-indol-7-yl)sulfamoyl]pyrazol-1-yl]azetidine-1-carboxylate] | 0.25 to 1 | < 0.25 |
| N#Cc1c[nH]c2c(NS(=O)(=O)c3cnn(CC4CC4)c3)ccc(Cl)c12 [Compound 123, N-(4-chloro-3-cyano-1H-indol-7-yl)-1-(cyclopropylmethyl)pyrazole-4-sulfonamide] | 0.25 to 1 | < 0.25 |
| Cc1ccc(NS(=O)(=O)c2cnn(C)c2)c2[nH]cc(F)c12 [Compound 126, N-(3-fluoro-4-methyl-1H-indol-7-yl)-1-methyl-pyrazole-4-sulfonamide] | 0.25 to 1 | 0.25 to 1 |
| N#CC1(Cn2cc(S(=O)(=O)Nc3cccc4c(Cl)c[nH]c34)cn2)CC1 [Compound 52, N-(3-chloro-1H-indol-7-yl)-1-[(1-cyanocyclopropyl)methyl]pyrazole-4-sulfonamide] | 0.25 to 1 | < 0.25 |
| N#Cc1c[nH]c2c(NS(=O)(=O)c3cn[nH]c3)ccc(Cl)c12 [Compound 121, N-(4-chloro-3-cyano-1H-indol-7-yl)-1H-pyrazole-4-sulfonamide] | 0.25 to 1 | < 0.25 |
| Cc1ccc(NS(=O)(=O)c2cnn(CC(C)(C)CO)c2)c2[nH]cc(C#N)c12 [Compound 258, N-(3-cyano-4-methyl-1H-indol-7-yl)-1-(3-hydroxy-2,2-dimethylpropyl)-1H-pyrazole-4-sulfonamide] | < 0.25 | < 0.25 |
| Cc1ccc(NS(=O)(=O)c2cnn(C)c2)c2[nH]ccc12 [Compound 74, 1-methyl-N-(4-methyl-1H-indol-7-yl)pyrazole-4-sulfonamide] | > 1 | > 1 |
| Cc1ccc(NS(=O)(=O)c2cnn(C3(CF)COC3)c2)c2[nH]cc(C#N)c12 [Compound 117, N-(3-cyano-4-methyl-1H-indol-7-yl)-1-[3-(fluoromethyl)oxetan-3-yl]pyrazole-4-sulfonamide] | < 0.25 | < 0.25 |
| O=S(=O)(Nc1cccc2c(Cl)c[nH]c12)c1cnn(CCCF)c1 [Compound 57, N-(3-chloro-1H-indol-7-yl)-1-(3-fluoropropyl)pyrazole-4-sulfonamide] | > 1 | < 0.25 |
| C[C@H](CO)n1cc(S(=O)(=O)Nc2ccc(F)c3c(C#N)c[nH]c23)cn1 [Compound 212, (R)—N-(3-cyano-4-fluoro-1H-indol-7-yl)-1-(1-hydroxypropan-2-yl)-1H-pyrazole-4-sulfonamide] | 0.25 to 1 | < 0.25 |
| Cc1ccc(NS(=O)(=O)c2cnn(CC3(CO)COC3)c2)c2[nH]cc(C#N)c12 [Compound 106, N-(3-cyano-4-methyl-1H-indol-7-yl)-1-[[3-(hydroxymethyl)oxetan-3-yl]methyl]pyrazole-4-sulfonamide] | 0.25 to 1 | < 0.25 |
| Cc1ccc(NS(=O)(=O)c2cnn(CC3(C)COC3)c2)c2[nH]cc(C#N)c12 [Compound 71, N-(3-cyano-4-methyl-1H-indol-7-yl)-1-[(3-methyloxetan-3-yl)methyl]pyrazole-4-sulfonamide] | 0.25 to 1 | < 0.25 |
| Cc1ccc(NS(=O)(=O)c2cnn([C@H]3CN(C(=O)OC(C)(C)C)C[C@H]3F)c2)c2[nH]cc(C#N)c12 [Compound 153, tert-butyl (3S,4R)-3-[4-[(3-cyano-4-methyl-1H-indol-7-yl)sulfamoyl]pyrazol-1-yl]-4-fluoro-pyrrolidine-1-carboxylate] | > 1 | < 0.25 |
| C[C@@H](CO)n1cc(S(=O)(=O)Nc2ccc(Cl)c3c(C#N)c[nH]c23)cn1 [Compound 266, N-(4-chloro-3-cyano-1H-indol-7-yl)-1-[(1S)-2-hydroxy-1-methyl-ethyl]pyrazole-4-sulfonamide] | 0.25 to 1 | < 0.25 |
| N#Cc1c[nH]c2c(NS(=O)(=O)c3cnn(CC4(O)CCC4)c3)ccc(Cl)c12 [Compound 179, N-(4-chloro-3-cyano-1H-indol-7-yl)-1-[(1-hydroxycyclobutyl)methyl]pyrazole-4-sulfonamide] | 0.25 to 1 | < 0.25 |
